Results on 2 compounds are retold here after patent US9028890B2, “Composition for improving sexual wellness” (Horphag Research (IP) Pre Ltd., priority 2010, dated 2015).

Assay [1] deals with postmenopausal women. Conditions: taken together with supplemental hormones, cited from earlier work.
The subject of assay [2] is postmenopausal women. To be noted: cited from earlier work.
The test system of assay [3] is Adult women of all ages with a score lower than four points for all five domains. Description: Women responding by FSFI: score equal to or higher than four points for all five domains after four weeks (Examples 3, 5, 6). In kind it is in vivo, human. To be noted: daily supply, four weeks treatment. From the text: Women's sexual function is scored using the established “Female Sexual Function Index” (FSFI) questionnaire [Rosen et al., 2000]. The questionnaire allows to score prevalence of six subcategories (domains) related to female sexual function, with minimum and maximum scores given:
Adult women of all ages were investigated who presented with a score lower than four points out of maximum six points for all five domains.
The investigation depicts the number of responders to the intervention as detailed in the tables after four weeks treatment with a score equal to or higher than four points for all five domains.

As for `CCCc1nn(C)c2c(=O)[nH]c(-c3cc(S(=O)(=O)N4CCN(C)CC4)ccc3OCC)nc12` [sildenafil], in the assay on postmenopausal women [1] (202 postmenopausal women, placebo group 43 percent), the “women who reported improved genital sensations” value is 57%. Besides, in the assay on postmenopausal women [1] (placebo group 27 percent), the “group members who reported greater satisfaction with sex” value is “Forty-one”. In the assay on postmenopausal women [2], the “treatment of SD” value is reported as “not effective”.

Regarding `N=C(N)NCCC[C@H](N)C(=O)O` [2.8 g L-arginine, L-arginine], the “Responders (women responding with improvement / n)” value in assay [3] is on record as 5/26.
